Among the data in patent publication US20110263662A1, “1,2-DIAMIDO-ETHYLENE DERIVATIVES AS OREXIN ANTAGONISTS” (priority 2007, published 2011) are IC50 values, retold here.

By IC50 is commonly meant the midpoint of a concentration-inhibition curve.

One experiment has as its target T1, human orexin-1 receptor (Homo sapiens, UniProt O43613).
T1 construct: expressed in transfected cells; host or cells: CHO (Chinese hamster ovary) cells, grown under G418 selection
T1 sequence (O43613 1-425): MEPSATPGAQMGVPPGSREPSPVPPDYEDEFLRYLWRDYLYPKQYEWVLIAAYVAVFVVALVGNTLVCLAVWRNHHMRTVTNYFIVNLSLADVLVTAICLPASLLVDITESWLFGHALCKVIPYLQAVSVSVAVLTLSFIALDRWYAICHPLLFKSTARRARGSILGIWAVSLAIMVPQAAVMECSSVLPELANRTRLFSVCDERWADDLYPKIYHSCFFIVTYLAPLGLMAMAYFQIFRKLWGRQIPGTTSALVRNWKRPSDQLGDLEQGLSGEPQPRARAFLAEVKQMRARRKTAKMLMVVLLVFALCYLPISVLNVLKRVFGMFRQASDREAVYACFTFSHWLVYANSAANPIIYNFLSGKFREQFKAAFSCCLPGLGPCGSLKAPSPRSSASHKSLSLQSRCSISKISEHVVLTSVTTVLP
Kind of experiment: FLIPR intracellular calcium assay, orexin receptor antagonistic activity (OX1). It is filed as cell-based. The conditions noted are these: CHO cells expressing human orexin-1 receptor, 3 nM orexin-A. The protocol: (§1) Chinese hamster ovary (CHO) cells expressing the human orexin-1 receptor and the human orexin-2 receptor, respectively, are grown in culture medium (Ham F-12 with L-Glutamine) containing 300 μg/ml G418, 100 U/ml penicillin, 100 μg/ml streptomycin and 10% heat inactivated fetal calf serum (FCS). The cells are seeded at 20′000 cells/well into 384-well black clear bottom sterile plates (Greiner). The seeded plates are incubated overnight at 37° C. in 5% CO2.
(§2) Human orexin-A as an agonist is prepared as 1 mM stock solution in MeOH:water (1:1), diluted in HBSS containing 0.1% bovine serum albumin (BSA), NaHCO3:0.375 g/l and 20 mM HEPES for use in the assay at a final concentration of 3 nM.
(§3) Antagonists are prepared as 10 mM stock solution in DMSO, then diluted in 384-well plates, first in DMSO, then in HBSS containing 0.1% bovine serum albumin (BSA), NaHCO3: 0.375 g/l and 20 mM HEPES.
(§4) On the day of the assay, 50 μl of staining buffer (HBSS containing 1% FCS, 20 mM HEPES, NaHCO3: 0.375 g/l, 5 mM probenecid (Sigma) and 3 μM of the fluorescent calcium indicator fluo-4 AM (1 mM stock solution in DMSO, containing 10% pluronic) is added to each well.
(§5) The 384-well cell-plates are incubated for 50 min at 37° C. in 5% CO2 followed by equilibration at RT for 30-120 min before measurement.
(§6) Within the Fluorescent Imaging Plate Reader (FLIPR2 or FLIPR Tetra, Molecular Devices), antagonists are added to the plate in a volume of 10 μl/well, incubated for 10 min and finally 10 μl/well of agonist is added. Fluorescence is measured for each well at 1 second intervals, and the height of each fluorescence peak is compared to the height of the fluorescence peak induced by 3 nM orexin-A with vehicle in place of antagonist. For each antagonist, the IC50 value (the concentration of compound needed to inhibit 50% of the agonistic response) is determined. Optimized conditions may be achieved by adjustment of pipetting speed and cell splitting regime. The calculated IC50 values of the compounds may fluctuate depending on the daily cellular assay performance. Fluctuations of this kind are known to those skilled in the art.
A general note: A change in cytosolic calcium serves as a functional read-out for many receptors and channels.

For the next experiment, the target named is T2, human orexin-2 receptor (Homo sapiens, UniProt O43614).
T2 construct: expressed in transfected cells; host or cells: CHO (Chinese hamster ovary) cells, grown under G418 selection
T2 sequence (O43614 1-444): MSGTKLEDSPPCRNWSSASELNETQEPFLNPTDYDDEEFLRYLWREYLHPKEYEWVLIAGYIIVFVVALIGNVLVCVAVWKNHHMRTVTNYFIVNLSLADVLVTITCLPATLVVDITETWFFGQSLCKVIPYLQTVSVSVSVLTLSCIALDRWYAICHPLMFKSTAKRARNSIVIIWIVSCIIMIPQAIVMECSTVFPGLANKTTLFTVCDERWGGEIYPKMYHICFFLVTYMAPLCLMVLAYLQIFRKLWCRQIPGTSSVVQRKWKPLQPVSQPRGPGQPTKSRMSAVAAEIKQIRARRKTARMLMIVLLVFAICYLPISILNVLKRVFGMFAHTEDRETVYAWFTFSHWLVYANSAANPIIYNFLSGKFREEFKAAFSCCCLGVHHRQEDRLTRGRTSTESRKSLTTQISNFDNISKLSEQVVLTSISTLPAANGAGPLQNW
Put plainly: FLIPR intracellular calcium assay, orexin receptor antagonistic activity (OX2). Type of experiment: cell-based. The conditions noted are these: CHO cells expressing human orexin-2 receptor, 3 nM orexin-A. The protocol:
as §1, §2, §3, §4, §5, §6

Where [1] appears, read: measured with FLIPR Tetra (marked *).

As to `Cc1nc(C(=O)N(CCNC(=O)c2c(C)nc3sccn23)Cc2ccc(F)cc2)c(-c2ccccc2)s1` [Example 18, 6-Methyl-imidazo[2,1-b]thiazole-5-carboxylic acid {2-[(4-fluoro-benzyl)-(2-methyl-5-phenyl-thiazole-4-carbonyl)-amino]-ethyl}-amide], the IC50 on human orexin-1 receptor (measured with FLIPR 2) was determined as 7.8 nM; at human orexin-2 receptor (measured with FLIPR 2), 11 nM.
The matching figures for `Cc1nc(C(=O)N(CCNC(=O)c2cccc3c2OCCO3)Cc2ccc(C(F)(F)F)cc2)c(-c2ccccc2)s1` [Example 25, 2-Methyl-5-phenyl-thiazole-4-carboxylic acid {2-[(2,3-dihydro-benzo[1,4]dioxine-5-carbonyl)-amino]-ethyl}-(4-trifluoromethyl-benzyl)-amide]: 75 nM and 12 nM.
The matching figures for `Cc1nc(C(=O)N(CCNC(=O)c2cccc3c2OCCO3)CC(C)C)c(-c2ccccc2)s1` [Example 31, 2-Methyl-5-phenyl-thiazole-4-carboxylic acid {2-[(2,3-dihydro-benzo[1,4]dioxine-5-carbonyl)-amino]-ethyl}-isobutyl-amide]: 504 nM and 85 nM.
For `Cc1ccc(-c2sc(Br)nc2C(=O)N(CCNC(=O)c2c(C)nc3sccn23)C2CC2)cc1` [Example 111, 6-Methyl-imidazo[2,1-b]thiazole-5-carboxylic acid {2-[(2-bromo-5-p-tolyl-thiazole-4-carbonyl)-cyclopropyl-amino]ethyl}-amide], the IC50 was 39 nM at human orexin-1 receptor (setting [1]) and 23 nM at human orexin-2 receptor (setting [1]).
As for `COc1cccc(-c2sc(C)nc2C(=O)N(CCNC(=O)c2nn(C)c3ccccc23)C2CC2)c1` [Example 140, 1-Methyl-1H-indazole-3-carboxylic acid (2-{cyclopropyl-[5-(3-methoxy-phenyl)-2-methyl-thiazole-4-carbonyl]-amino}-ethyl)-amide], the IC50 was found to be 98 nM at human orexin-1 receptor (setting [1]) and 68 nM on human orexin-2 receptor (setting [1]).
Regarding `Cc1cccc(-c2ccccc2C(=O)N(CCNC(=O)c2nn(C)c3ccccc23)C2CC2)c1` [Example 144, 1-Methyl-1H-indazole-3-carboxylic acid {2-[cyclopropyl-(3′-methyl-biphenyl-2-carbonyl)-amino]-ethyl}-amide], the IC50 is 95 nM at human orexin-1 receptor (setting [1]) and 20 nM at human orexin-2 receptor (setting [1]).
In the same order, the values of `Cc1nc(C(=O)N(CCNC(=O)c2cccc3occc23)C2CC2)c(-c2ccc(C)c(C)c2)s1` [Example 165, 5-(3,4-Dimethyl-phenyl)-2-methyl-thiazole-4-carboxylic acid {2-[(benzofuran-4-carbonyl)-amino]-ethyl}-cyclopropyl-amide] are 2 nM and 4.3 nM.
As to `Cc1cccc(-c2sc(C3CC3)nc2C(=O)N(CCNC(=O)c2c(C)nc3sccn23)CC2CC2)c1` [Example 171, 6-Methyl-imidazo[2,1-b]thiazole-5-carboxylic acid {2-[cyclopropylmethyl-(2-cyclopropyl-5-m-tolyl-thiazole-4-carbonyl)-amino]-ethyl}-amide], the figures for the IC50 at human orexin-1 receptor (setting [1]) and on human orexin-2 receptor (setting [1]) were 16 nM and 12 nM, respectively.
`COc1cccc(-c2sc(Br)nc2C(=O)N(CCNC(=O)c2c(C)nc3sccn23)CC2CC2)c1` [Example 179, 6-Methyl-imidazo[2,1-b]thiazole-5-carboxylic acid (2-{[2-bromo-5-(3-methoxy-phenyl)-thiazole-4-carbonyl]-cyclopropylmethyl-amino}-ethyl)-amide]: the IC50 on human orexin-1 receptor (setting [1]) and at human orexin-2 receptor (setting [1]) was 10 nM in each case.
`Cc1nc(C(=O)N(CCNC(=O)c2c(C)nc3sccn23)CC2CC2)c(-c2cccc(C#N)c2)s1` [Example 187, 6-Methyl-imidazo[2,1-b]thiazole-5-carboxylic acid (2-{[5-(3-cyano-phenyl)-2-methyl-thiazole-4-carbonyl]-cyclopropylmethyl-amino}-ethyl)-amide]: the results for the IC50 at human orexin-1 receptor (setting [1]) and at human orexin-2 receptor (setting [1]) were 17 nM and 28 nM, respectively.
In the same order, the values of `Cc1cccc(-c2sc(N)nc2C(=O)N(CCNC(=O)c2nn(C)c3ccccc23)CC2CC2)c1` [Example 195, 1-Methyl-1H-indazole-3-carboxylic acid {2-[(2-amino-5-m-tolyl-thiazole-4-carbonyl)-cyclopropylmethyl-amino]-ethyl}-amide] are 57 nM and 12 nM.
`COc1cccc(-c2sc(C)nc2C(=O)N(CCNC(=O)c2cccc3c2OCCO3)CC2CC2)c1` [Example 248, 5-(3-Methoxy-phenyl)-2-methyl-thiazole-4-carboxylic acid cyclopropylmethyl-{2-[(2,3-dihydro-benzo[1,4]dioxine-5-carbonyl)-amino]-ethyl}-amide]: the IC50 on human orexin-1 receptor (setting [1]) was determined as 434 nM; on human orexin-2 receptor (setting [1]), 29 nM.
The matching figures for `Cc1cccc(-c2ccccc2C(=O)N(CCNC(=O)c2cccc3c2OCCO3)CC2CC2)c1` [Example 252, 2,3-Dihydro-benzo[1,4]dioxine-5-carboxylic acid {2-[cyclopropylmethyl-(3′-methyl-biphenyl-2-carbonyl)-amino]-ethyl}-amide]: 807 nM and 203 nM.
`Nc1nc(C(=O)N(CCNC(=O)c2cccc3occc23)CC2CC2)c(-c2ccc(F)cc2)s1` [Example 261, 2-Amino-5-(4-fluoro-phenyl)-thiazole-4-carboxylic acid {2-[(benzofuran-4-carbonyl)-amino]-ethyl}-cyclopropylmethyl-amide]: the IC50 on human orexin-1 receptor (setting [1]) amounted to 263 nM; at human orexin-2 receptor (setting [1]), 4.2 nM.
In the same order, the values of `Nc1nc(C(=O)N(CCNC(=O)c2cccc3occc23)CC2CC2)c(-c2cccc(Cl)c2)s1` [Example 262, 2-Amino-5-(3-chloro-phenyl)-thiazole-4-carboxylic acid {2-[(benzofuran-4-carbonyl)-amino]-ethyl}-cyclopropylmethyl-amide] are 144 nM and 17 nM.
